We go through 3 compounds from patent US4337272A, “Amino-ethanol derivatives” (Valeas S. R. L. Industria Chimica E Farmaceutica, priority 1975, dated 1982).

The structures appear in SMILES notation. Structures can show the parent of a compound that is named as a salt.

The nature of data set [1]: Acute toxicity LD50 (Litchfield and Wilcoxon). Conditions: in vivo.
The subject of data set [2] is bronchospasm induced by Acetilcholine in conscious guinea pig. Put plainly: Prevention of acetylcholine-induced bronchospasm in conscious guinea pig by inhalation (Armitage method).
For data set [3], the system named is Guinea Pig airway constriction. Conditions: i.v.; literature (Duhault et al.); cited from earlier work.

One may read the LD50 as the dose expected to kill half of the subjects tested. Low readings indicate greater toxicity, high ones lower toxicity. Consider `CC(C)NCC(O)c1cc(O)cc(O)c1` (centres unmarked) [Orciprenaline, reference compound], for which, in data set [1], the 50% lethal dose (LD50) was found to be 380 mg/kg. Besides, in data set [2], the “time before sign of dispnea (mean)” value is 502 ± 67 s. For the compound `Cn1c(=O)c2[nH]cnc2n(C)c1=O` [Theophylline], the “active dose in the experimental bronchospasm according to Konzett-Rossler” value in data set [3] was 25 mg/kg. Take `COc1ccc(CC(C)NCC(O)c2cc(N)cc(CO)c2)cc1` (centres unmarked) [VAL 5000/PM, 1-(5-amino-3 hydroxymethyl) phenyl-2-(1 p-methoxyphenyl-2-propylamino)ethanol dihydrochloride]: in data set [1], the LD50 is 295 mg/kg. In addition, the “time before sign of dispnea (mean)” value in data set [2] is 475 ± 60 s.
